From US9999619B2, “Piperidin-4-yl azetidine derivatives as JAK1 inhibitors” (Incyte Corporation, priority 2010, dated 2018) come the findings set out here.

The structures appear in SMILES notation.

Type in all cases: biochemical
In assay [1] the target is human JAK1 (a.a. 837-1142) (Homo sapiens, UniProt P23458). In words: In vitro JAK kinase assay (HTRF, phosphorylation of a biotinylated peptide), JAK1. Particulars: measured at 1 mM ATP. The method, boiled down:
(§1)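 N-terminal His-tagged catalytic domains, baculovirus-expressed in insect cells, phosphorylated a biotinylated peptide for 1 hr at room temperature. EDTA stop was followed by SA-APC and Eu-Py20 antibody for 40 minutes, with phosphopeptide read by HTRF.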

Assay [2] concerns the target human JAK1 (a.a. 837-1142). The description is as above. The following applies: ratio of JAK2 IC50 to JAK1 IC50, measured at 1 mM ATP. The method in brief:
as §1

For assay [3], the target named is Jak2 (a.a. 828-1132) (Homo sapiens (Human), UniProt O60674). The assay can be described thus: In vitro JAK kinase assay (HTRF, phosphorylation of a biotinylated peptide), JAK2. Particulars: measured at 1 mM ATP. The method, boiled down:
as §1
(In TR-FRET formats the signal depends on donor and acceptor labels being close together.)

Sequence of Jak2 (a.a. 828-1132) (O60674 828-1132): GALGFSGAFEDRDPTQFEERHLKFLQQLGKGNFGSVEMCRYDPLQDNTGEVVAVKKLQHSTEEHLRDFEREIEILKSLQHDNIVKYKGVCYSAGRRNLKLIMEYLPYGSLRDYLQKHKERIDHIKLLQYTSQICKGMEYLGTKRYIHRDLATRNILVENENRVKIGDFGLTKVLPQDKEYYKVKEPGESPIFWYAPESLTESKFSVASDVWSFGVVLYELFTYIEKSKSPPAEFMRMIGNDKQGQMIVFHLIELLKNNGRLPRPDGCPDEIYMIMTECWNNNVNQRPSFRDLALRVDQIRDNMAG

Consider `N#CCC1(n2cc(-c3ccnc4[nH]ccc34)cn2)CN(C2CCN(C(=O)Nc3ccncc3C(F)(F)F)CC2)C1` [Example 307, 4-{3-(cyanomethyl)-3-[4-(1H-pyrrolo[2,3-b]pyridin-4-yl)-1H-pyrazol-1-yl]azetidin-1-yl}-N-[3-(trifluoromethyl)pyridin-4-yl]piperidine-1-carboxamide], for which the IC50 in assay [1] was in the range of 5 to 20 nM; in assay [3] it was 50 to 100 nM. Besides, the “IC50 Ratio JAK2/JAK1” value in assay [2] is given as 8.8.

As to `COc1ncccc1NC(=O)N1CCC(N2CC(CC#N)(n3ccc(-c4ncnc5[nH]ccc45)c3)C2)CC1` [Example 284, 4-{3-(cyanomethyl)-3-[3-(7H-pyrrolo[2,3-d]pyrimidin-4-yl)-1H-pyrrol-1-yl]azetidin-1-yl}-N-(2-methoxypyridin-3-yl)piperidine-1-carboxamide], the IC50 in assay [1] was no more than 5 nM; in assay [3], 10 to 50 nM. For the same molecule, the “IC50 Ratio JAK2/JAK1” value in assay [2] is 5.8.

Turning to `CCN(CC)Cc1cc(C(=O)N2CCC(N3CC(CC#N)(n4cc(-c5ncnc6[nH]ccc56)cn4)C3)CC2)nc(C(F)(F)F)n1` [Example 373, {1-(1-{[6-[(diethylamino)methyl]-2-(trifluoromethyl)pyrimidin-4-yl]carbonyl}piperidin-4-yl)-3-[4-(7H-pyrrolo[2,3-d]pyrimidin-4-yl)-1H-pyrazol-1-yl]azetidin-3-yl}acetonitrile], the IC50 in assay [1] is no more than 5 nM; in assay [3] it was 10 to 50 nM. Also, the “IC50 Ratio JAK2/JAK1” value in assay [2] was 36.8.

Turning to `N#CCC1(n2ccc(-c3ncnc4[nH]ccc34)c2)CN(C2CCN(C(=O)c3cccc(C#N)c3)CC2)C1` [Example 262, 3-[(4-{3-(cyanomethyl)-3-[3-(7H-pyrrolo[2,3-d]pyrimidin-4-yl)-1H-pyrrol-1-yl]azetidin-1-yl}piperidin-1-yl)carbonyl]benzonitrile], the IC50 lay within 5 to 20 nM in assay [1] and 50 to 100 nM in assay [3]. In addition, the “IC50 Ratio JAK2/JAK1” value in assay [2] is on record as 7.4.

On to `CCn1nccc1NC(=O)N1CCC(N2CC(CC#N)(n3cc(-c4ncnc5[nH]ccc45)cn3)C2)CC1` [Example 196, 4-{3-(cyanomethyl)-3-[4-(7H-pyrrolo[2,3-d]pyrimidin-4-yl)-1H-pyrazol-1-yl]azetidin-1-yl}-N-(1-ethyl-1H-pyrazol-5-yl)piperidine-1-carboxamide], for which the IC50 was 5 to 20 nM in assay [1] and 50 to 100 nM in assay [3]. Besides, the “IC50 Ratio JAK2/JAK1” value in assay [2] was 9.9.

Consider `Cc1ncccc1NC(=O)N1CCC(N2CC(CC#N)(n3cc(-c4ncnc5[nH]ccc45)cn3)C2)CC1` [Example 198, 4-{3-(cyanomethyl)-3-[4-(7H-pyrrolo[2,3-d]pyrimidin-4-yl)-1H-pyrazol-1-yl]azetidin-1-yl}-N-(2-methylpyridin-3-yl)piperidine-1-carboxamide], for which the IC50 in assay [1] is no more than 5 nM; in assay [3], 10 to 50 nM. Also, the “IC50 Ratio JAK2/JAK1” value in assay [2] is on record as 4.4.

Turning to `N#CCC1(n2cc(-c3ccnc4[nH]ccc34)cn2)CN(C2CCN(C(=O)c3cncc(C(F)(F)F)n3)CC2)C1` [Example 300, [3-[4-(1H-pyrrolo[2,3-b]pyridin-4-yl)-1H-pyrazol-1-yl]-1-(1-{[6-(trifluoromethyl)pyrazin-2-yl]carbonyl}piperidin-4-yl)azetidin-3-yl]acetonitrile], the IC50 is 5 to 20 nM in assay [1] and greater than 100 nM in assay [3]. The “IC50 Ratio JAK2/JAK1” value in assay [2] turned out to be 11.7.

For `N#CCC1(n2cc(-c3ncnc4[nH]ccc34)cn2)CN(C2CCN(C(=O)Nc3ccc(F)cc3F)CC2)C1` [Example 171, 4-{3-(cyanomethyl)-3-[4-(7H-pyrrolo[2,3-d]pyrimidin-4-yl)-1H-pyrazol-1-yl]azetidin-1-yl}-N-(2,4-difluorophenyl)piperidine-1-carboxamide], the IC50 is no more than 5 nM in assay [1] and 10 to 50 nM in assay [3]. Besides, the “IC50 Ratio JAK2/JAK1” value in assay [2] is on record as 7.5.

Take `N#CCC1(n2cc(-c3c(F)cnc4[nH]ccc34)cn2)CN(C2CCN(C(=O)c3ccc(F)cn3)CC2)C1` [Example 319, {1-{1-[(5-fluoropyridin-2-yl)carbonyl]piperidin-4-yl}-3-[4-(5-fluoro-1H-pyrrolo[2,3-b]pyridin-4-yl)-1H-pyrazol-1-yl]azetidin-3-yl}acetonitrile]: the IC50 in assay [1] was no more than 5 nM; in assay [3], 10 to 50 nM. In addition, the “IC50 Ratio JAK2/JAK1” value in assay [2] came to 4.0.

Regarding `CN(C)Cc1cc(C(=O)N2CCC(N3CC(CC#N)(n4cc(-c5ncnc6[nH]ccc56)cn4)C3)CC2)nc(C(F)(F)F)n1` [Example 370, {1-(1-{[6-[(dimethylamino)methyl]-2-(trifluoromethyl)pyrimidin-4-yl]carbonyl}piperidin-4-yl)-3-[4-(7H-pyrrolo[2,3-d]pyrimidin-4-yl)-1H-pyrazol-1-yl]azetidin-3-yl}acetonitrile], the results for the IC50 in assay [1] and in assay [3] were no more than 5 nM and 50 to 100 nM, respectively. Also, the “IC50 Ratio JAK2/JAK1” value in assay [2] is 55.

As to `N#CCC1(n2cc(-c3ncnc4[nH]ccc34)cn2)CN(C2CCN(Cc3ccnc(Br)c3)CC2)C1` [Example 226, {1-{1-[(2-bromopyridin-4-yl)methyl]piperidin-4-yl}-3-[4-(7H-pyrrolo[2,3-d]pyrimidin-4-yl)-1H-pyrazol-1-yl]azetidin-3-yl}acetonitrile], the 50% inhibitory concentration (IC50) in assay [1] is 5 to 20 nM; in assay [3], 10 to 50 nM. In assay [2], the “IC50 Ratio JAK2/JAK1” value turned out to be 1.9.

Regarding `N#CCC1(n2cc(-c3ncnc4[nH]ccc34)cn2)CN(C2CCN(C(=O)c3cc4ccccc4s3)CC2)C1` [Example 90, {1-[1-(1-benzothien-2-ylcarbonyl)piperidin-4-yl]-3-[4-(7H-pyrrolo[2,3-d]pyrimidin-4-yl)-1H-pyrazol-1-yl]azetidin-3-yl}acetonitrile], the IC50 is no more than 5 nM in assay [1] and no more than 10 nM in assay [3]. For the same molecule, in assay [2], the “IC50 Ratio JAK2/JAK1” value is listed as 1.5.

For the molecule `N#CCC1(n2cc(-c3ncnc4[nH]ccc34)cn2)CN(C2CCN(C(=O)c3cc(CN4CCC4)nc(C(F)(F)F)n3)CC2)C1` [Example 372, {1-(1-{[6-(azetidin-1-ylmethyl)-2-(trifluoromethyl)pyrimidin-4-yl]carbonyl}piperidin-4-yl)-3-[4-(7H-pyrrolo[2,3-d]pyrimidin-4-yl)-1H-pyrazol-1-yl]azetidin-3-yl}acetonitrile], the IC50 in assay [1] was no more than 5 nM; in assay [3] it was 10 to 50 nM. In addition, the “IC50 Ratio JAK2/JAK1” value in assay [2] was determined as 67.3.

With `N#CCC1(n2cc(-c3ncnc4[nH]ccc34)cn2)CN(C2CCN(C(=O)c3ccccc3C#N)CC2)C1` [Example 10, 2-[(4-{3-(cyanomethyl)-3-[4-(7H-pyrrolo[2,3-d]pyrimidin-4-yl)-1H-pyrazol-1-yl]azetidin-1-yl}piperidin-1-yl)carbonyl]benzonitrile], the IC50 fell in the range of 5 to 20 nM in assay [1] and 10 to 50 nM in assay [3]. Also, the “IC50 Ratio JAK2/JAK1” value in assay [2] is 4.4.

On to `Cc1nc(C(F)(F)F)ccc1NC(=O)N1CCC(N2CC(CC#N)(n3ccc(-c4ncnc5[nH]ccc45)c3)C2)CC1` [Example 285, 4-{3-(cyanomethyl)-3-[3-(7H-pyrrolo[2,3-d]pyrimidin-4-yl)-1H-pyrrol-1-yl]azetidin-1-yl}-N-[2-methyl-6-(trifluoromethyl)pyridin-3-yl]piperidine-1-carboxamide], for which the IC50 in assay [1] is 5 to 20 nM; in assay [3], 10 to 50 nM. Further, in assay [2], the “IC50 Ratio JAK2/JAK1” value is on record as 5.7.

With `N#CCC1(n2cc(-c3c(C#N)cnc4[nH]ccc34)cn2)CN(C2CCN(C(=O)c3cc(C(F)(F)F)ncc3Cl)CC2)C1` [Example 341, 4-{1-[1-{1-[5-chloro-2-(trifluoromethyl)isonicotinoyl]piperidin-4-yl}-3-(cyanomethyl)azetidin-3-yl]-1H-pyrazol-4-yl}-1H-pyrrolo[2,3-b]pyridine-5-carbonitrile], the IC50 in assay [1] lay in the range of 5 to 20 nM; in assay [3], 50 to 100 nM. Also, in assay [2], the “IC50 Ratio JAK2/JAK1” value is recorded as 3.2.

Take `N#CCC1(n2cc(-c3c(F)cnc4[nH]ccc34)cn2)CN(C2CCN(C(=O)c3ccc(C#N)cc3F)CC2)C1` [Example 317, 4-[(4-{3-(cyanomethyl)-3-[4-(5-fluoro-1H-pyrrolo[2,3-b]pyridin-4-yl)-1H-pyrazol-1-yl]azetidin-1-yl}piperidin-1-yl)carbonyl]-3-fluorobenzonitrile]: the IC50 was no more than 5 nM in assay [1] and 10 to 50 nM in assay [3]. For the same molecule, the “IC50 Ratio JAK2/JAK1” value in assay [2] amounted to 4.5.

Take `COc1ncccc1NC(=O)N1CCC(N2CC(CC#N)(n3cc(-c4ccnc5[nH]ccc45)cn3)C2)CC1` [Example 306, 4-{3-(cyanomethyl)-3-[4-(1H-pyrrolo[2,3-b]pyridin-4-yl)-1H-pyrazol-1-yl]azetidin-1-yl}-N-(2-methoxypyridin-3-yl)piperidine-1-carboxamide]: the IC50 in assay [1] fell in the range of 5 to 20 nM; in assay [3], 10 to 50 nM. In addition, the “IC50 Ratio JAK2/JAK1” value in assay [2] turned out to be 3.5.

With `CC(C)NCc1cc(C(=O)N2CCC(N3CC(CC#N)(n4cc(-c5ncnc6[nH]ccc56)cn4)C3)CC2)nc(C(F)(F)F)n1` [Example 382, {1-(1-{[6-[(isopropylamino)methyl]-2-(trifluoromethyl)pyrimidin-4-yl]carbonyl}piperidin-4-yl)-3-[4-(7H-pyrrolo[2,3-d]pyrimidin-4-yl)-1H-pyrazol-1-yl]azetidin-3-yl}acetonitrile], the concentration for half-maximal inhibition (IC50) in assay [1] is no more than 5 nM; in assay [3], 10 to 50 nM. In addition, in assay [2], the “IC50 Ratio JAK2/JAK1” value came to 26.7.

In the case of `N#CCC1(n2cc(-c3ncnc4[nH]ccc34)cn2)CN(C2CCN(Cc3cc4ccccc4o3)CC2)C1` [Example 232, {1-[1-(1-benzofuran-2-ylmethyl)piperidin-4-yl]-3-[4-(7H-pyrrolo[2,3-d]pyrimidin-4-yl)-1H-pyrazol-1-yl]azetidin-3-yl}acetonitrile], the IC50 was 5 to 20 nM in assay [1] and no more than 10 nM in assay [3]. Also, the “IC50 Ratio JAK2/JAK1” value in assay [2] stood at 0.7.

As a reminder, the IC50 is the midpoint of a concentration-inhibition curve.
